{"source": "patent US10238670B2", "about": "“9-aminomethyl minocycline compounds and methods of use thereof in urinary tract infection (UTI) treatment” (Paratek Pharmaceuticals, Inc., priority 2016, dated 2019)", "key": {"[1]": {"assay": "In vitro plasma protein binding (ultrafiltration), human plasma", "type": "in vitro ADME", "conditions": "male; human plasma; 10-10,000 ng/mL; mean±SD; read-out: mean unbound protein fraction (fu) in plasma", "protocol": "(§1) For human binding studies, plasma was obtained from the blood of three healthy male volunteers. Plasma was defrosted from storage at -20° C. before use, and pools of human plasma were used for all studies. Plasma from mouse, rat, and monkey was supplied by Harlan Laboratories Ltd. (Netherlands), Milan […], Switzerland) and Centre de Primatologie ULP (France), respectively. Protein binding was measured using an ultrafiltration method. To asses the suitability of ultrafiltration, the recovery and free permeation of [^14C]-labelled Compound 1 in PBS buffer were investigated. […] Three 1 mL aliquots per concentration were introduced into […]® devices and spun for 1 min at 2000 g (filtrate ≤500 μL). Samples of the spiked solutions, the filtrate and retentate were quantified by LSC; volumes were determined by weighing. The free permeation of the test compound in PBS was evaluated as follows: Ratio=[Cuf/Cr] with Cuf being the concentration in the ultrafiltrate (ng/mL) and Cr the concentration in the retentate (ng/mL). […] Specifically, concentrations of Compound 1 was determined by an UPLC-MS/MS method. […] Standards and quality control samples were prepared on the day of analysis by adding a 20 μL aliquot of an appropriate standard or QC spiking solution in methanol. A 25 μL aliquot of the internal standard (at 200 ng/mL in methanol) was added to each well except blanks. […] Samples were processed using protein precipitation. A 0.5 mL aliquot of an acetonitrile/ethanol/acetic acid mixture (90:10:0.1, v:v:v) was added to each sample; samples were mixed using a vortex mixer for 10 minutes, and centrifuged 3800 rpm (approximately 2500×g) for 10 min at 10° C. A 500 μL aliquot of the supernatant transferred to a clean 96 well plate, 2 ml. An aliquot 500 μL of 80:20 (water:acetonitrile) was added to all the samples. Samples were mixed by vortexing for 0.5 min. A 6 μL sample volume was injected into the UPLC/MS/MS system for analysis. Samples were then assayed on an UPLC-MS/MS system, consisting of an Acquity UPLC with a quaternary pump, a ample manager, and sample organizer, coupled to a Sciex API4000 mass spectrometer running Analyst software version 1.4.2 (Foster City, Calif., USA). The mass spectrometer was operated in the positive ion mode, using electro spray ionization, with a source temperature of 500° C. Chromatographic separation was carried out on an Acquity BEH C18, 50×2.1, 1.7 particle (Waters, Mass.) at a flow rate of 1.0 mL/min. The column temperature was maintained at 65° C. […] The ions monitored for Compound 1 was the parent [M+H]^+ ion at m/z 557.3.0; the product ions at m/z 453.4. Data processing: Calibration curves (y=x^2+xb+c or y=ax+b), represented by the plots of the respective peak area ratios (y) of the analyte […] versus the concentrations (x) of the calibration samples, were generated using weighted (1/x^2 or 1/x) quadratic least-squares regression as the mathematical model. The quantification was performed using Analyst software and Watson LIMS version 7.2.0.01. Concentrations in QC and study samples were calculated from the resulting peak area ratios and interpolation from the regression equations of the respective calibration curves. The lower limit of quantitation was 5.0 ng/mL for Compound 1."}, "plasma proteins": {"system": "plasma proteins", "assay": "In vitro plasma protein binding (ultrafiltration), human plasma", "type": "in vitro ADME", "protocol": "as §1"}, "[2]": {"conditions": "cited from earlier work"}, "Phase 1 studies, safety": {"assay": "Phase 1 studies, safety", "type": "in vivo, human", "protocol": "In the Phase 1 studies, 536 subjects were exposed to Compound 1 IV or oral formulations. Single IV doses up to 600 mg and single oral doses up to 600 mg have been investigated. Multiple IV doses of 100 mg once daily and 200 mg once daily for up to 14 and 7 consecutive days, respectively, have been investigated."}, "[3]": {"system": "human transporters and cytochrome P-450", "conditions": "cited from earlier work"}, "E. coli FQR": {"system": "E. coli FQR", "assay": "In vitro MIC, 2010 surveillance isolates", "type": "cell-based, Escherichia coli", "conditions": "N=1264"}, "[4]": {"assay": "14C-Compound 1 excretion and kidney/blood distribution in rats", "type": "in vivo, rat", "conditions": "for dose excreted in the urine: IV 5 mg/kg", "protocol": "In rats, based on ^14C-Compound 1 dosed intravenously, approximately 30% of the dose (5 mg/kg) was excreted in the urine, with 25% excreted in the first 24 hours. The remainder of the dose was excreted into the feces. After IV dosing, the concentration of radioactivity in the kidney (cortex: 12,700 ng/g; medulla: 11,500 ng/g; pelvis: 11,300 ng/g) exceeded the blood concentration (1,570 ng/ml) 5 minutes post dose and at 24 hrs post dose (blood: 57.6 ng/ml; kidney cortex 318 ng/g; kidney medulla: 167 ng/g; kidney pelvis: 161 ng/g)."}, "human plasma protein": {"system": "human plasma protein", "conditions": "cited from earlier work"}}, "note": "Several values for one entry are separate records, joined by “and”; a condition that tells them apart may be missing. Equal values may be shown once. Read-outs that look alike come from different tables or passages of the source."}
{"smiles": "CN(C)c1cc(CNCC(C)(C)C)c(O)c2c1C[C@H]1C[C@H]3[C@H](N(C)C)C(O)=C(C(N)=O)C(=O)[C@@]3(O)C(O)=C1C2=O", "note": "[Compound 1, 9-[(2,2-dimethyl-propylamino)-methyl]-minocycline]", "values": [{"measurement": "fraction unbound", "setting": "[1]", "result": "0.787 ± 0.0972"}, {"measurement": "Mean (SD) Bound Fraction", "setting": "plasma proteins; human plasma, 10-10,000 ng/mL", "result": "21% and 21.3 (9.72) %"}, {"measurement": "concentration dependency of plasma protein binding", "setting": "plasma proteins; human plasma, 10-10,000 ng/mL", "result": "not concentration dependent"}, {"measurement": "mean unbound protein fraction (fu) in plasma", "setting": "plasma proteins; human plasma, 10-10,000 ng/mL, mean±SD", "result": "78.7±9.7", "unit": "%"}, {"measurement": "fraction unbound at 100 ng/mL", "setting": "plasma proteins; male, human, plasma, Concentration 100 ng/mL", "result": 0.656}, {"measurement": "fraction unbound at 1000 ng/mL", "setting": "plasma proteins; male, human, plasma, Concentration 1,000 ng/mL", "result": 0.878}, {"measurement": "fraction unbound at 10000 ng/mL", "setting": "plasma proteins; male, human, plasma, Concentration 10,000 ng/mL", "result": 0.798}, {"measurement": "fraction unbound", "setting": "plasma proteins; male, human, plasma, Mean over concentrations", "result": 0.787}, {"measurement": "peak plasma concentration", "setting": "[2]; 100 mg IV dose", "result": 1.8, "unit": "mg/L"}, {"measurement": "peak plasma concentration", "setting": "[2]; 300 mg oral dose", "result": 0.6, "unit": "mg/L"}, {"measurement": "elimination half-life", "setting": "[2]; phase 1 studies", "result": "approximately 17 hours"}, {"measurement": "discontinuations due to drug-related adverse events", "setting": "Phase 1 studies, safety; all Phase 1 studies, subjects who received multiple doses", "result": "no discontinuations due to drug-related adverse events"}, {"measurement": "serious adverse events", "setting": "Phase 1 studies, safety; multiple p.o. doses of 200 mg and 300 mg once daily for up to 10 consecutive days", "result": "without any serious adverse events"}, {"measurement": "potential for drug-drug interactions", "setting": "[3]", "result": "low potential for drug-drug interactions"}, {"measurement": "Cumulative % Inhibition at MIC", "setting": "E. coli FQR; MIC 1 μg/ml", "result": 64.4, "unit": "%"}, {"measurement": "Cumulative % Inhibition at MIC", "setting": "E. coli FQR; MIC 2 μg/ml", "result": 89.2, "unit": "%"}, {"measurement": "Cumulative % Inhibition at MIC", "setting": "E. coli FQR; MIC 4 μg/ml", "result": 97.7, "unit": "%"}, {"measurement": "Cumulative % Inhibition at MIC", "setting": "E. coli FQR; MIC 8 μg/ml", "result": 99.6, "unit": "%"}, {"measurement": "Cumulative % Inhibition at MIC", "setting": "E. coli FQR; MIC 16 μg/ml", "result": 99.9, "unit": "%"}, {"measurement": "Cumulative % Inhibition at MIC", "setting": "E. coli FQR; MIC ≤0.5 μg/ml, listed as head image P00008", "result": 29.6, "unit": "%"}, {"measurement": "Cumulative % Inhibition at MIC", "setting": "E. coli FQR; MIC ≥32 μg/ml", "result": 100, "unit": "%"}, {"measurement": "dose excreted in the urine", "setting": "[4]; first 24 hours", "result": 25, "unit": "%"}, {"measurement": "dose excreted in the urine", "setting": "[4]; total", "result": "approximately 30%"}, {"measurement": "concentration of radioactivity, blood", "setting": "[4]; IV, 5 minutes post dose", "result": "1,570 ng/ml"}, {"measurement": "concentration of radioactivity, kidney cortex", "setting": "[4]; IV, 5 minutes post dose", "result": "12,700 ng/g"}, {"measurement": "concentration of radioactivity, kidney medulla", "setting": "[4]; IV, 5 minutes post dose", "result": "11,500 ng/g"}, {"measurement": "concentration of radioactivity, kidney cortex", "setting": "[4]; IV, 24 hrs post dose", "result": 318, "unit": "ng/g"}, {"measurement": "concentration of radioactivity, kidney medulla", "setting": "[4]; IV, 24 hrs post dose", "result": 167, "unit": "ng/g"}, {"measurement": "concentration of radioactivity, kidney pelvis", "setting": "[4]; IV, 24 hrs post dose", "result": 161, "unit": "ng/g"}]}
{"smiles": "CN(C)c1cc(NC(=O)CNC(C)(C)C)c(O)c2c1C[C@H]1C[C@H]3[C@H](N(C)C)C(O)=C(C(N)=O)C(=O)[C@@]3(O)C(O)=C1C2=O", "note": "[Tigecycline]", "values": [{"measurement": "type of plasma protein binding", "setting": "human plasma protein; binding increases with increasing drug concentrations", "result": "atypical, non-linear protein binding"}, {"measurement": "human plasma protein binding, Mean", "setting": "human plasma protein; literature", "result": "71-87%"}]}
